{"source": "paper PMC5218480", "about": "(PLoS ONE, 2017)", "test_system": "MV-4-11 cells", "assay": "Gene expression microarray analysis (Affymetrix PrimeView) and GSEA", "format": "cell-based, human", "set-up": "RFU PODN (11730768_x_at) / Fold change /veh PODN (11730768_x_at) / RFU LINC00158 (11744669_a_at) / Fold change /veh LINC00158 (11744669_a_at) / RFU DUSP10 (11751237_a_at) / Fold change /veh DUSP10 (11751237_a_at) / RFU ID3 (11757404_x_at) / Fold change /veh ID3 (11757404_x_at) / RFU PLEKHG5 (11737974_s_at) / Fold change /veh PLEKHG5 (11737974_s_at) / RFU LRRC4B (11730491_at) / Fold change /veh LRRC4B (11730491_at) / RFU GIMAP4 (11747438_a_at) / Fold change /veh GIMAP4 (11747438_a_at) / RFU KRT8 (11758183_x_at) / Fold change /veh KRT8 (11758183_x_at) / RFU CNN1 (11734310_a_at) / Fold change /veh CNN1 (11734310_a_at) / RFU VPS37D (11726825_at) / Fold change /veh VPS37D (11726825_at) / RFU C10orf10 (11716522_x_at) / Fold change /veh C10orf10 (11716522_x_at) / RFU KIR2DL2 /// KIR2DL4 /// KIR2DL5A /// KIR2DL5B /// KIR2DS1 /// KIR2DS2 /// KIR2DS3 /// KIR2DS4 /// KIR3DL3 /// KIR3DL3 /// KIR3DS1 (11738374_at) / Fold change /veh KIR2DL2 /// KIR2DL4 /// KIR2DL5A /// KIR2DL5B /// KIR2DS1 /// KIR2DS2 /// KIR2DS3 /// KIR2DS4 /// KIR3DL3 /// KIR3DL3 /// KIR3DS1 (11738374_at) / RFU C1QL1 (11718748_at) / Fold change /veh C1QL1 (11718748_at) / RFU TMPRSS4 (11747572_a_at) / Fold change /veh TMPRSS4 (11747572_a_at) / RFU HAMP (11756126_x_at) / Fold change /veh HAMP (11756126_x_at) / RFU RNFT2 (11725882_a_at) / Fold change /veh RNFT2 (11725882_a_at) / RFU NR4A2 (11747474_a_at) / Fold change /veh NR4A2 (11747474_a_at) / RFU ABCC12 (11746883_a_at) / Fold change /veh ABCC12 (11746883_a_at) / RFU TMEM136 (11760407_x_at) / Fold change /veh TMEM136 (11760407_x_at) / RFU CLDN22 /// WWC2 (11732394_at) / Fold change /veh CLDN22 /// WWC2 (11732394_at) / RFU HLA-DPB1 (11760878_x_at) / Fold change /veh HLA-DPB1 (11760878_x_at) / RFU SPINT1 (11716480_a_at) / Fold change /veh SPINT1 (11716480_a_at) / RFU GAP43 (11754022_s_at) / Fold change /veh GAP43 (11754022_s_at) / RFU A4GNT (11735810_at) / Fold change /veh A4GNT (11735810_at) / RFU PRB3 (11715151_x_at) / Fold change /veh PRB3 (11715151_x_at) / RFU TUBB4B (11761932_at) / Fold change /veh TUBB4B (11761932_at) / RFU CAPN14 (11732068_a_at) / Fold change /veh CAPN14 (11732068_a_at) / RFU TMCC2 (11721928_a_at) / Fold change /veh TMCC2 (11721928_a_at) / RFU IRGQ (11745062_a_at) / Fold change /veh IRGQ (11745062_a_at) / RFU FAM174B (11720279_a_at) / Fold change /veh FAM174B (11720279_a_at) / RFU TMPRSS4 (11748680_a_at) / Fold change /veh TMPRSS4 (11748680_a_at) / RFU FAM212B (11763350_a_at) / Fold change /veh FAM212B (11763350_a_at) / RFU PLEKHG5 (11743358_a_at) / Fold change /veh PLEKHG5 (11743358_a_at) / RFU ZSCAN30 (11745921_a_at) / Fold change /veh ZSCAN30 (11745921_a_at) / RFU CMKLR1 (11741424_a_at) / Fold change /veh CMKLR1 (11741424_a_at) / RFU LOC101060620 /// MAPK8IP1 (11723275_at) / Fold change /veh LOC101060620 /// MAPK8IP1 (11723275_at) / RFU SPTSSB (11747773_x_at) / Fold change /veh SPTSSB (11747773_x_at) / RFU PRSS12 (11739890_at) / Fold change /veh PRSS12 (11739890_at) / RFU BIN1 (11741810_x_at) / Fold change /veh BIN1 (11741810_x_at) / RFU WNT11 (11732464_a_at) / Fold change /veh WNT11 (11732464_a_at) / RFU C10orf10 (11716521_a_at) / Fold change /veh C10orf10 (11716521_a_at) / RFU C5orf56 (11738089_at) / Fold change /veh C5orf56 (11738089_at) / RFU CYB561 (11721691_x_at) / Fold change /veh CYB561 (11721691_x_at) / RFU ANKRD19P (11752326_a_at) / Fold change /veh ANKRD19P (11752326_a_at) / RFU OR2T12 /// OR2T33 /// OR2T8 (11738714_s_at) / Fold change /veh OR2T12 /// OR2T33 /// OR2T8 (11738714_s_at) / RFU VCAN (11748164_a_at) / Fold change /veh VCAN (11748164_a_at) / RFU JSRP1 (11732532_at) / Fold change /veh JSRP1 (11732532_at) / RFU KRTAP10-11 (11738290_x_at) / Fold change /veh KRTAP10-11 (11738290_x_at) / RFU MYO3A (11730013_a_at) / Fold change /veh MYO3A (11730013_a_at) / RFU EBF3 (11725865_a_at) / Fold change /veh EBF3 (11725865_a_at) / RFU CAMK2N1 (11719241_x_at) / Fold change /veh CAMK2N1 (11719241_x_at) / RFU C5orf56 (11738088_a_at) / Fold change /veh C5orf56 (11738088_a_at) / RFU OLFML3 (11715873_a_at) / Fold change /veh OLFML3 (11715873_a_at) / RFU LOC100653217 /// NTM (11731650_a_at) / Fold change /veh LOC100653217 /// NTM (11731650_a_at) / RFU MAPK11 (11762145_a_at) / Fold change /veh MAPK11 (11762145_a_at) / RFU FIZ1 (11724087_x_at) / Fold change /veh FIZ1 (11724087_x_at) / RFU OASL (11726364_x_at) / Fold change /veh OASL (11726364_x_at) / RFU SOX15 (11748057_x_at) / Fold change /veh SOX15 (11748057_x_at) / RFU CD79A (11719716_a_at) / Fold change /veh CD79A (11719716_a_at) / RFU HIST1H1D (11736915_at) / Fold change /veh HIST1H1D (11736915_at) / RFU CASKIN2 (11723855_a_at) / Fold change /veh CASKIN2 (11723855_a_at) / RFU LOC730098 (11760151_x_at) / Fold change /veh LOC730098 (11760151_x_at) / RFU OR4N2 (11742367_at) / Fold change /veh OR4N2 (11742367_at) / RFU PRRT2 (11749266_a_at) / Fold change /veh PRRT2 (11749266_a_at) / RFU SNX32 (11753110_a_at) / Fold change /veh SNX32 (11753110_a_at) / RFU CDHR5 (11726645_a_at) / Fold change /veh CDHR5 (11726645_a_at) / RFU RCAN1 (11760418_a_at) / Fold change /veh RCAN1 (11760418_a_at) / RFU FAM167A (11723789_a_at) / Fold change /veh FAM167A (11723789_a_at) / RFU FAM26E (11764081_at) / Fold change /veh FAM26E (11764081_at) / RFU ISYNA1 (11749810_s_at) / Fold change /veh ISYNA1 (11749810_s_at) / RFU ACY1 (11761880_at) / Fold change /veh ACY1 (11761880_at) / RFU 11764098_at / Fold change /veh 11764098_at / RFU SAMD14 (11745864_x_at) / Fold change /veh SAMD14 (11745864_x_at) / RFU NPB (11741838_a_at) / Fold change /veh NPB (11741838_a_at) / RFU TMPRSS6 (11731388_a_at) / Fold change /veh TMPRSS6 (11731388_a_at) / RFU KRTAP10-2 (11738614_at) / Fold change /veh KRTAP10-2 (11738614_at) / RFU ARHGAP8 /// PRR5-ARHGAP8 (11727945_x_at) / Fold change /veh ARHGAP8 /// PRR5-ARHGAP8 (11727945_x_at) / RFU KRTAP5-7 /// NADSYN1 (11734609_at) / Fold change /veh KRTAP5-7 /// NADSYN1 (11734609_at) / RFU RASL12 (11751679_a_at) / Fold change /veh RASL12 (11751679_a_at) / RFU CDKN2B (11736163_a_at) / Fold change /veh CDKN2B (11736163_a_at) / RFU PRF1 (11729649_at) / Fold change /veh PRF1 (11729649_at) / RFU, ZNF638 /// ZNF638-IT1 / Fold change vs veh, ZNF638 /// ZNF638-IT1 / RFU, PANK3 / Fold change vs veh, PANK3 / RFU, SH3YL1 / Fold change vs veh, SH3YL1 / RFU, ZEB2 / Fold change vs veh, ZEB2 / RFU, NRIP1 / Fold change vs veh, NRIP1 / RFU, PTTG1IP / Fold change vs veh, PTTG1IP / RFU, CAPN2 / Fold change vs veh, CAPN2 / RFU, MED14 / Fold change vs veh, MED14 / RFU, SNORA58 / Fold change vs veh, SNORA58 / RFU, C1orf63 / Fold change vs veh, C1orf63 / RFU, LRRFIP1 / Fold change vs veh, LRRFIP1 / RFU, NDUFAF7 / Fold change vs veh, NDUFAF7 / RFU, SLC12A2 / Fold change vs veh, SLC12A2 / RFU, IBTK / Fold change vs veh, IBTK / RFU, ESF1 / Fold change vs veh, ESF1 / Fold change vs veh, TMEM50B / RFU, TAOK1 / Fold change vs veh, TAOK1 / RFU, ACBD3 / Fold change vs veh, ACBD3 / RFU, TMA16 / Fold change vs veh, TMA16 / RFU, RWDD3 / Fold change vs veh, RWDD3 / RFU, BCAT1 / Fold change vs veh, BCAT1 / RFU, EDEM3 / Fold change vs veh, EDEM3 / RFU, TMEM33 / Fold change vs veh, TMEM33 / RFU, WDR75 / Fold change vs veh, WDR75 / RFU, AHCTF1 / Fold change vs veh, AHCTF1 / RFU, TFRC / Fold change vs veh, TFRC / RFU, ZDHHC17 / Fold change vs veh, ZDHHC17 / RFU, NOM1 / Fold change vs veh, NOM1 / RFU, ARL8B / Fold change vs veh, ARL8B / RFU, ZBTB11 / Fold change vs veh, ZBTB11 / RFU, TAMM41 / Fold change vs veh, TAMM41 / RFU, KIAA1704 /// LOC100996395 / Fold change vs veh, KIAA1704 /// LOC100996395 / RFU, ING1 / Fold change vs veh, ING1 / RFU, TRMT61B / Fold change vs veh, TRMT61B / RFU, FUBP3 / Fold change vs veh, FUBP3 / RFU, TP53 / Fold change vs veh, TP53 / RFU, TNKS2 / Fold change vs veh, TNKS2 / RFU, ZFP14 / Fold change vs veh, ZFP14 / RFU, ACTR2 / Fold change vs veh, ACTR2 / RFU, PPP3R1 / Fold change vs veh, PPP3R1 / RFU, PIK3R1 / Fold change vs veh, PIK3R1 / RFU, HNRNPA1 / Fold change vs veh, HNRNPA1 / RFU, RNF170 / Fold change vs veh, RNF170 / RFU, ZNF28 / Fold change vs veh, ZNF28 / RFU, RNGTT / Fold change vs veh, RNGTT / RFU, OGT / Fold change vs veh, OGT / RFU, BRD1 / Fold change vs veh, BRD1 / RFU, MARS / Fold change vs veh, MARS / RFU, ZNF655 / Fold change vs veh, ZNF655 / RFU, FAHD1 / Fold change vs veh, FAHD1 / RFU, BDP1 / Fold change vs veh, BDP1 / RFU, LRRCC1 / Fold change vs veh, LRRCC1 / RFU, ARID1A / Fold change vs veh, ARID1A / RFU, ZNF146 / Fold change vs veh, ZNF146 / RFU, ZNF330 / Fold change vs veh, ZNF330 / RFU, GPN3 / Fold change vs veh, GPN3 / RFU, C9orf123 / Fold change vs veh, C9orf123 / RFU, N4BP2L2 / Fold change vs veh, N4BP2L2 / RFU, ARFIP1 / Fold change vs veh, ARFIP1 / RFU, FAM179B / Fold change vs veh, FAM179B / RFU, BCL10 / Fold change vs veh, BCL10 / RFU, UHRF1BP1L / Fold change vs veh, UHRF1BP1L / RFU, BET1 / Fold change vs veh, BET1 / RFU, CNOT2 / Fold change vs veh, CNOT2 / RFU, ZNF268 / Fold change vs veh, ZNF268 / Fold change vs veh, ZNF507 / RFU, DGCR2 / Fold change vs veh, DGCR2 / RFU, WDSUB1 / Fold change vs veh, WDSUB1 / Fold change vs veh, HSP90B1 /// MIR3652 / RFU, ADSS / Fold change vs veh, ADSS / RFU, GK / Fold change vs veh, GK / RFU, ZNF148 / Fold change vs veh, ZNF148 / RFU, TAF9 / Fold change vs veh, TAF9 / RFU, SLC1A5 / Fold change vs veh, SLC1A5 / RFU, SLMO2 / Fold change vs veh, SLMO2 / RFU, ABCC4 / Fold change vs veh, ABCC4 / RFU, LOC101060439 /// RAP1B / Fold change vs veh, LOC101060439 /// RAP1B / RFU, RFX7 / Fold change vs veh, RFX7 / RFU, GTPBP10 / Fold change vs veh, GTPBP10 / RFU, CNEP1R1 / Fold change vs veh, CNEP1R1 / RFU, BIVM-ERCC5 /// ERCC5 / Fold change vs veh, BIVM-ERCC5 /// ERCC5 / RFU, ILF3 / Fold change vs veh, ILF3 / RFU 11762660_at / Fold change /veh 11762660_at / RFU VCAN (11757783_s_at) / Fold change /veh VCAN (11757783_s_at) / RFU DDX43 (11728927_at) / Fold change /veh DDX43 (11728927_at) / RFU KRT8 (11758188_x_at) / Fold change /veh KRT8 (11758188_x_at) / RFU NKD1 (11759106_at) / Fold change /veh NKD1 (11759106_at) / RFU SRD5A1 (11742802_a_at) / Fold change /veh SRD5A1 (11742802_a_at) / RFU TPSAB1 /// TPSB2 (11721975_s_at) / Fold change /veh TPSAB1 /// TPSB2 (11721975_s_at) / RFU GSTM3 (11746129_a_at) / Fold change /veh GSTM3 (11746129_a_at) / RFU IL23R (11737362_x_at) / Fold change /veh IL23R (11737362_x_at) / RFU TMEM51 (11727254_a_at) / Fold change /veh TMEM51 (11727254_a_at) / RFU PIWIL2 (11732686_x_at) / Fold change /veh PIWIL2 (11732686_x_at) / RFU ORM1 (11744905_x_at) / Fold change /veh ORM1 (11744905_x_at) / RFU CCDC152 (11743942_at) / Fold change /veh CCDC152 (11743942_at) / RFU ECM1 (11717891_a_at) / Fold change /veh ECM1 (11717891_a_at) / RFU IL23R (11748794_a_at) / Fold change /veh IL23R (11748794_a_at) / RFU TNFAIP8L3 (11732012_x_at) / Fold change /veh TNFAIP8L3 (11732012_x_at) / RFU MBOAT4 (11741988_at) / Fold change /veh MBOAT4 (11741988_at) / RFU 11764193_at / Fold change /veh 11764193_at / RFU TMEM53 (11763286_at) / Fold change /veh TMEM53 (11763286_at) / RFU MAGEB2 (11727129_at) / Fold change /veh MAGEB2 (11727129_at) / RFU TMEM200A (11744735_a_at) / Fold change /veh TMEM200A (11744735_a_at) / RFU CCDC152 (11751479_a_at) / Fold change /veh CCDC152 (11751479_a_at) / RFU FAM211A (11726209_a_at) / Fold change /veh FAM211A (11726209_a_at) / RFU RGS16 (11746705_a_at) / Fold change /veh RGS16 (11746705_a_at) / RFU VCAN (11755009_s_at) / Fold change /veh VCAN (11755009_s_at) / RFU RHOB (11743442_s_at) / Fold change /veh RHOB (11743442_s_at) / RFU RGS16 (11720943_a_at) / Fold change /veh RGS16 (11720943_a_at) / RFU RGS16 (11720944_at) / Fold change /veh RGS16 (11720944_at) / RFU, VPS4B / Fold change vs veh, VPS4B / RFU, CREB1 / Fold change vs veh, CREB1 / RFU, DNAJC13 / Fold change vs veh, DNAJC13 / RFU, GNAQ / Fold change vs veh, GNAQ / RFU, CDK5R1 / Fold change vs veh, CDK5R1 / RFU, ZRANB3 / Fold change vs veh, ZRANB3 / RFU, CUL4A / Fold change vs veh, CUL4A / RFU, CCNY / Fold change vs veh, CCNY / RFU, UFL1 / Fold change vs veh, UFL1 / RFU, COG3 / Fold change vs veh, COG3 / RFU, DIAPH2 / Fold change vs veh, DIAPH2 / RFU, SKA2 / Fold change vs veh, SKA2 / RFU, AFF3 / Fold change vs veh, AFF3 / RFU, LMF1 / Fold change vs veh, LMF1 / RFU, IPO11 / Fold change vs veh, IPO11 / RFU, DFFB / Fold change vs veh, DFFB / RFU, FOXP1 / Fold change vs veh, FOXP1 / RFU, CARD8 / Fold change vs veh, CARD8 / RFU, STRN3 / Fold change vs veh, STRN3 / RFU, ADK / Fold change vs veh, ADK / RFU, RASSF2 / Fold change vs veh, RASSF2 / RFU, WIPF1 / Fold change vs veh, WIPF1 / RFU, LARP1B / Fold change vs veh, LARP1B / RFU, RASA1 / Fold change vs veh, RASA1 / RFU, RB1 / Fold change vs veh, RB1 / RFU, PPFIA1 / Fold change vs veh, PPFIA1 / RFU, MAT2A / Fold change vs veh, MAT2A / RFU, CCT5 / Fold change vs veh, CCT5 / RFU, WDR92 / Fold change vs veh, WDR92 / RFU, CUX1 / Fold change vs veh, CUX1 / RFU, TTC7A / Fold change vs veh, TTC7A / RFU, TMEM135 / Fold change vs veh, TMEM135 / RFU, DEPTOR / Fold change vs veh, DEPTOR / RFU, CPM / Fold change vs veh, CPM / RFU, DNAJB6 / Fold change vs veh, DNAJB6 / RFU, CACNA2D3 / Fold change vs veh, CACNA2D3 / RFU, DTX4 / Fold change vs veh, DTX4 / RFU, TFCP2 / Fold change vs veh, TFCP2 / RFU, GMCL1 /// GMCL1P1 / Fold change vs veh, GMCL1 /// GMCL1P1 / RFU, AEBP2 / Fold change vs veh, AEBP2 / RFU, SNHG1 /// SNORD22 /// SNORD25 /// SNORD26 /// SNORD27 /// SNORD28 /// SNORD29 /// SNORD31 / Fold change vs veh, SNHG1 /// SNORD22 /// SNORD25 /// SNORD26 /// SNORD27 /// SNORD28 /// SNORD29 /// SNORD31 / Fold change (Aza/veh), C12orf56 (ProbeSet 11735607_a_at) / Fold change (ACY-1035/veh), C12orf56 (ProbeSet 11735607_a_at) / Fold change (Aza/veh), FGFR1OP (ProbeSet 11751329_s_at) / Fold change (ACY-1035/veh), FGFR1OP (ProbeSet 11751329_s_at) / Fold change (Aza/veh), VPS36 (ProbeSet 11739960_a_at) / Fold change (ACY-1035/veh), VPS36 (ProbeSet 11739960_a_at) / RFU SYPL1 (11715823_x_at) / Fold change /veh SYPL1 (11715823_x_at) / RFU IGFBP7 (11715501_s_at) / Fold change /veh IGFBP7 (11715501_s_at) / RFU REEP3 (11722064_at) / Fold change /veh REEP3 (11722064_at) / RFU IGLL1 (11728026_x_at) / Fold change /veh IGLL1 (11728026_x_at): dose or concentration left out as unconfirmed", "conditions": "MV-4-11 cells, 48 hours", "data": [{"smiles": "Nc1ccc(-c2cccs2)cc1NC(=O)c1ccc2c(c1)cc(C1CC1)n2CCN1CCOCC1", "note": "[ACY-1035]", "values": [{"measurement": "Fold change /veh TUBB4B (11761932_at)", "result": 1.03}]}]}
